Experimental data reported in patent US12221428B2, “Use of deuterated empathogens as therapeutic agents” (priority 2021, dated 2025).

Columns and labels:
[1] = molecular target: T1, nicotinic acetylcholine receptor nAChR (a4/b2) (Homo sapiens, UniProt P17787+P43681); experiment: FLIPR Membrane Potential ion channel assay, nAChR (a4/b2) blocker; assay type: cell-based; conditions: read-out: EC50/IC50
T1 construct: expressed in transfected cells
Procedure: Methods—Ion Channel Assay: Membrane potential changes were measured using the FLIPR® Membrane potential Assay Kit. A fluorescent indicator dye in combination with a quencher is used to reflect real-time membrane potential changes associated with ion channel activation and ion transporter proteins.
To determine agonist and antagonist activity, cell lines were expanded from freezer stocks, seeded into multi-well microplates, and incubated at 37° C. Cells were then loaded with dye and incubated again.
For agonist determination, cells were incubated with the sample a different dilutions to induce a response. For antagonist determination, cells were pre-incubated with the sample at different dilutions. Following dye administration, the sample was added to the cells in the presence of EC80 agonist and then re-incubated at room temperature in the dark.
Compound activity was analyzed using CBIS data analysis suite (ChemInnovation, CA). For agonist mode assays, percentage activity was calculated using the following formula: % Activity=100%×(mean RLU of test sample−mean RLU of vehicle control)/(mean MAX control ligand−mean RLU of vehicle control).
For antagonist mode assays, percentage inhibition was calculated using the following formula: % Inhibition=100%×(1−(mean RLU of test sample−mean RLU of vehicle control)/(mean RLU of EC80 control−mean RLU of vehicle control)).

HTR1B = molecular target: T2, HTR1B (Homo sapiens, UniProt P28222); experiment: Hit Hunter cAMP assay, HTR1B agonist mode; assay type: cell-based
T2 construct: expressed in transfected cells
Procedure: Methods—cAMP: Activation of HTR1B and GRM2, among other targets, was determined using the Hit Hunter® cAMP assay. The assay monitors the activation of a GPCR via Gi and Gs secondary messenger signaling, using β-Gal as a functional reporter.
To determine agonistic activity at Gi/Gs, cells were expanded from freezer stocks, seeded into multi-well plates, and incubated at 37° C. prior to addition of a test compound. To determine Gi/Gs agonism, media was aspirated from cells and replaced with 15 μL 2:1 HBSS/10 mM HEPES:cAMP XS+Ab reagent. Concentrated (4×) test compound in assay buffer was added to cells and incubated at 37° C. or room temperature for 30 or 60 minutes. For Gi agonist activation, cells were incubated with EC80 forskolin in addition to a test compound. Vehicle concentration was 1%.
For Gs agonist mode assays, percentage activity was calculated using the following formula: % Activity=100%×(mean RLU of test sample−mean RLU of vehicle control)/(mean RLU of MAX control−mean RLU of vehicle control).
For Gi agonist mode assays, percentage activity was calculated using the following formula: % Activity=100%×(1−(mean RLU of test sample−mean RLU of MAX control)/(mean RLU of vehicle control−mean RLU of MAX control)).

CYP2D6 = CYP2D6 (Homo sapiens, UniProt P10635); conditions: cited from earlier work
[2] = molecular target: T3, serotonin receptor 2B (HTR2B) (Homo sapiens, UniProt P41595); experiment: Calcium No Wash Plus calcium mobilization assay, HTR2B antagonist mode; assay type: cell-based
T3 construct: expressed in transfected cells
Procedure: Methods—Calcium Mobilization: GPCR activity of serotonin receptor 2B (HTR2B), among others, was measured using the Calcium No Wash^Plus assay, which monitors calcium mobilization in cell lines expressing Gq-coupled GPCRs by loading a calcium-sensitive dye into cells.
Cell lines were expanded from freezer stocks and seeded into multi-well microplates. Then, the plates were incubated at 37° C. for an appropriate amount of time and loaded with Dye Loading buffer. To determine compound agonist activity, cells were incubated with the sample to induce a response, and HBSS/20 mM Hepes was added using a FLIPR Tetra (MDS). Activity was measured on a FLIPR Tetra. Calcium mobilization was monitored for 2 minutes.
To determine compound antagonist activity, cells were pre-incubated with the sample followed by an post-incubation administration of the compound with 3×EC80 agonist using FLIPR. Compound antagonist activity was measured on a FLIPR Tetra (MDS) and calcium mobilization was monitored for 2 minutes.
Compound activity was analyzed using CBIS data analysis suite (ChemInnovation, CA). For agonist mode assays, percentage activity was calculated using the following formula: % Activity=100%×(mean RFU of test sample−mean RFU of vehicle control)/(mean MAX RFU control ligand −mean RFU of vehicle control). […]

NET = molecular target: T4, NET (Homo sapiens, UniProt P23975); experiment: Neurotransmitter Transporter Uptake Assay, NET blocker mode; assay type: cell-based
T4 construct: expressed in transfected cells
Procedure: Methods—Monoamine Transporter Assay: Neurotransmitter uptake via transporters was measured using the Neurotransmitter Transporter Uptake Assay Kit from Molecular Devices. Dopamine, norepinephrine or serotonin transporter activity in cells was detected using a homogeneous fluorescence based assay. Increased intracellular fluorescence intensity following uptake of biogenic amine neurotransmitters via transporters is measured and can be run in a kinetic or endpoint mode.
To determine percentage inhibition of neurotransmitter uptake via transporter, cell lines were expanded from freezer stocks, seeded into a multi-well microplate, and incubated at 37° C. Then, the compound was administered and the mix was incubated again. Following compound incubation, dye was added to the wells and the plate was re-incubated. Microplates were then transferred to a PerkinElmer Envision™ instrument for fluorescence signal detection.
Compound activity was analyzed using CBIS data analysis (ChemInnovation, CA). For blocker mode assays, percentage inhibition was calculated using the following formula: % Inhibition=100%×(1−(mean RLU of test sample−mean RLU of vehicle control)/(mean RLU of positive control−mean RLU of vehicle control)).

DAT = molecular target: T5, DAT (Homo sapiens, UniProt Q01959); experiment: Neurotransmitter Transporter Uptake Assay, DAT blocker mode; assay type: cell-based
T5 construct: expressed in transfected cells

[3] = cited from earlier work
[4] = cited from earlier work; remark: listed apart in the source

T1 sequence (P43681 29-627 limits assumed): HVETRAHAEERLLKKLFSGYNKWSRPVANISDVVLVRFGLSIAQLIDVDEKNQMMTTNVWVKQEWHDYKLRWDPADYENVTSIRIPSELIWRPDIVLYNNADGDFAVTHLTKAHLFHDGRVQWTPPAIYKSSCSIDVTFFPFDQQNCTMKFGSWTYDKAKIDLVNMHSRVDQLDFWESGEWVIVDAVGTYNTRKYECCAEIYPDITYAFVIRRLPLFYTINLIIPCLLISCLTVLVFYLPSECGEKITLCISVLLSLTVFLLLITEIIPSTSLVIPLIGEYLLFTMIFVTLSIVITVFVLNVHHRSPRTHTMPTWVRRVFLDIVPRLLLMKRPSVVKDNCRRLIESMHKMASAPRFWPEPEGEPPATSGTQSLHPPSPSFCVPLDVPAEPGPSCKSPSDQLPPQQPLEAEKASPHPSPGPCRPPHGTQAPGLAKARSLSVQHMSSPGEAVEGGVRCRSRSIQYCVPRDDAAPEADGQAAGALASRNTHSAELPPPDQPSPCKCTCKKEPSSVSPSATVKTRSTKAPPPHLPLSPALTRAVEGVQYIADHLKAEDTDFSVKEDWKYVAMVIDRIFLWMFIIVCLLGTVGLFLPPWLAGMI
T1 sequence (P17787 26-502): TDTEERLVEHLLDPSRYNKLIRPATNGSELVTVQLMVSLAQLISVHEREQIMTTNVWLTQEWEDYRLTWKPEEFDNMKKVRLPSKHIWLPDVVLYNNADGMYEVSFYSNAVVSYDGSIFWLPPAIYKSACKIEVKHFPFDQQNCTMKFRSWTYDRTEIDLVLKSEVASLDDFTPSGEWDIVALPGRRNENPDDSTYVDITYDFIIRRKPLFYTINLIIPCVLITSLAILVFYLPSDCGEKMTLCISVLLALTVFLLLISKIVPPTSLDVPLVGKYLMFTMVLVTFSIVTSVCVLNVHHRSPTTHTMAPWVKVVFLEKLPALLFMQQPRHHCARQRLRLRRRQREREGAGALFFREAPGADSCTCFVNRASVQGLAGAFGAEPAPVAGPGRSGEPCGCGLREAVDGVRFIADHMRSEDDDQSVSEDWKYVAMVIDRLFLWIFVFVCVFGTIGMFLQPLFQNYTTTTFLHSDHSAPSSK
T5 sequence (Q01959 whole entry, species assumed): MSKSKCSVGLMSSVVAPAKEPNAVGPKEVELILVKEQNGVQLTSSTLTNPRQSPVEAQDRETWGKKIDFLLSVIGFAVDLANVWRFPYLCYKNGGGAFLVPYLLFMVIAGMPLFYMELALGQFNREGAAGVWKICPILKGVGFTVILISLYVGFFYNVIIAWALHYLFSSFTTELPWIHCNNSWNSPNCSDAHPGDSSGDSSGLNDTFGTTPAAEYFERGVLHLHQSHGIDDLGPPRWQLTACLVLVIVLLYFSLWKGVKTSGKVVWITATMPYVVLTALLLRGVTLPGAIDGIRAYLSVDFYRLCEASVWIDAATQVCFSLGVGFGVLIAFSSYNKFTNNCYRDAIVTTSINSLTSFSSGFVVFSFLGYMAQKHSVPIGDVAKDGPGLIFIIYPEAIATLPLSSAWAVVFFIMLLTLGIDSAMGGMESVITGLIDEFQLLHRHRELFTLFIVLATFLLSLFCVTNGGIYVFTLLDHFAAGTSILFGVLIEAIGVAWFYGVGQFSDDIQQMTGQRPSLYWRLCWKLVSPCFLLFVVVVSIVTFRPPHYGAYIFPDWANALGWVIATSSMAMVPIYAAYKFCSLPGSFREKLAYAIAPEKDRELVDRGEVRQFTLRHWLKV
T4 sequence (P23975 whole entry): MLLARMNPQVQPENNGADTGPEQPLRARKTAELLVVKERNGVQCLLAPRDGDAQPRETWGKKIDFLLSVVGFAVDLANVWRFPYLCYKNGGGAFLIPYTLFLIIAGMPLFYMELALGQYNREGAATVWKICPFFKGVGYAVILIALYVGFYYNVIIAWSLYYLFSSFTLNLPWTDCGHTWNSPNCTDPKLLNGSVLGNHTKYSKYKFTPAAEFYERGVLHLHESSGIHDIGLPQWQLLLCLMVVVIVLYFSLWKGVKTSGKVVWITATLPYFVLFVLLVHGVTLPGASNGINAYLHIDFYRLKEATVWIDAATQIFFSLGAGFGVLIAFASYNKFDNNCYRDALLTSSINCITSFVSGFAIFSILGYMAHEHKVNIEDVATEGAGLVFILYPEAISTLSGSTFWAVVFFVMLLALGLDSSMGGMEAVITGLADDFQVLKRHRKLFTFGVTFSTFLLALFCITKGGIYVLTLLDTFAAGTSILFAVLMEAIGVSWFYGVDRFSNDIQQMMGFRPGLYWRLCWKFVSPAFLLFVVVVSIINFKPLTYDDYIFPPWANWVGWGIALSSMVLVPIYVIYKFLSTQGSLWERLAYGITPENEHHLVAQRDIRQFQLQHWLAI
T2 sequence (P28222 whole entry, species assumed): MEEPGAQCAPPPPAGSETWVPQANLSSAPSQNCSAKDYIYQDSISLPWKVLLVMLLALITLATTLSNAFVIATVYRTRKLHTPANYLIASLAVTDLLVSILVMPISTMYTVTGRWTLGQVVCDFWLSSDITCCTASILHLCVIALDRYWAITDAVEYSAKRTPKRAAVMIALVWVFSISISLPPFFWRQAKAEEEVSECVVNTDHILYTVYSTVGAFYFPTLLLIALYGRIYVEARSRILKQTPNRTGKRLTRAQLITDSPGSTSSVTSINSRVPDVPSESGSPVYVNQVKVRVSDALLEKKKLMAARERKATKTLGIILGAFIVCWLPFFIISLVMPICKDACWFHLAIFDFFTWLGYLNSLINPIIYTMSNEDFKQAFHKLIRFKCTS
T3 sequence (P41595 whole entry, species assumed): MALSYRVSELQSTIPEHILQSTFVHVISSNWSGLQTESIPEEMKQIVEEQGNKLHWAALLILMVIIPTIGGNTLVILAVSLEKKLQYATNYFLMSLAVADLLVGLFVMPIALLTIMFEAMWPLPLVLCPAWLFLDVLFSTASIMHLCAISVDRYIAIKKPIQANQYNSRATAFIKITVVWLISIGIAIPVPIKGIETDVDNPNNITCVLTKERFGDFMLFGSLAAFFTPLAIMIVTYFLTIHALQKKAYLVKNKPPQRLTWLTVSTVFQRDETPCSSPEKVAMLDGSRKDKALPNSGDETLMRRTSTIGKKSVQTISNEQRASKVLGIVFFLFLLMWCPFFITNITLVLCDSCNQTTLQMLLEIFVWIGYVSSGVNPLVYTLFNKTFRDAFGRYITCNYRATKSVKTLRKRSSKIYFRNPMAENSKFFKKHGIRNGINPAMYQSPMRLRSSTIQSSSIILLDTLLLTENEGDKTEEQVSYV
Sequence of CYP2D6 (P10635 whole entry): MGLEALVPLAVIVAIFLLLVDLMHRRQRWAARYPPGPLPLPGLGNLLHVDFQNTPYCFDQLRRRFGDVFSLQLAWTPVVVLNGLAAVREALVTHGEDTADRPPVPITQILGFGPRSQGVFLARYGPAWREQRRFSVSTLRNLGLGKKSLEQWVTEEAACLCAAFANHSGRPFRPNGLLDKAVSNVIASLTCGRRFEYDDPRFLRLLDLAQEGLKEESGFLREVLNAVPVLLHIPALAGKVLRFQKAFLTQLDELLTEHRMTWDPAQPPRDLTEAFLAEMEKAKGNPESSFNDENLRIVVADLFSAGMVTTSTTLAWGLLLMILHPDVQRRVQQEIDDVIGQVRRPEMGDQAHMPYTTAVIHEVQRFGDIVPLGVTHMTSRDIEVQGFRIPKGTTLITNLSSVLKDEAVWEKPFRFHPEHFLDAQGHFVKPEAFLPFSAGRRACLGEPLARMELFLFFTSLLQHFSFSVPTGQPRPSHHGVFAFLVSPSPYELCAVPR

Row | SMILES | IC50 [1] | EC50 (HTR1B) | CYP2D6 inhibition (CYP2D6) | IC50 [2] | IC50 (NET) | IC50 (DAT) | efficacy in severe PTSD ([3]; MDMA-assisted therapy compared to therapy with inactive placebo) | safety and tolerability ([3]; individuals with severe PTSD, even with comorbidities) | interoceptive effects ([4]; deuterium substitution at the methylenedioxy ring moiety) | hyperthermic effects ([4]; in vivo)
1 | CNC(C)Cc1ccc2c(c1)OCO2 (stereo not drawn) [MDMA, 3,4-methylenedioxymethamphetamine] | 3.19 µM | 4.71 µM | inhibit CYP2D6 | 5.34 µM | 2.49 µM | 9.84 µM | highly efficacious | safe and well-tolerated |  | 
2 | [2H]C([2H])([2H])NC(C)Cc1ccc2c(c1)OCO2 (stereo not drawn) [MDMA-d3] | 4.38 µM | 2.99 µM |  | 4.2 µM | 3.87 µM | 7.57 µM |  |  |  | 
3 | [2H]C1([2H])Oc2ccc(CC(C)NC)cc2O1 (stereo not drawn) [d2-MDMA] |  |  |  |  |  |  |  |  | does not impact MDMA's interoceptive effects | reduced potential for producing hyperthermic effects
